Source: patent US20040127501A1, “Therapeutic agents useful for treating pain” (priority 2002, published 2004)

Biological target: T1, mGluR5 (Rattus norvegicus, UniProt P31424)
T1 construct: The procedure allows the expression of the mGluR5 receptor by astrocytes; endogenous in cells; host or cells: secondary astrocyte cultures from embryonic (E18) Sprague-Dawley cortex, EGF-treated
Test: mGluR5 calcium mobilization flux assay in primary astrocytes (Fluo-4, Fluorometric Imaging Plate reader)
Type: cell-based, rat (Sprague-Dawley)
Conditions: astrocytes expressing mGluR5; calcium mobilization flux with glutamate (final 10 mM); mean of 5 experiments
Experimental: Cell cultures: Primary glial cultures were prepared from cortices of Sprague-Dawley 18 days old embryos. The cortices were dissected and then dissociated by trituration. The resulting cell homogenate was plated onto poly-D-lysine precoated T175 flasks (BIOCOAT, commercially available from Becton Dickinson and Company Inc. of Franklin Lakes, N.J.) in Dulbecco's Modified Eagle's Medium (“DMEM,” pH 7.4), buffered with 25 mM HEPES, and supplemented with 15% fetal calf serum (“FCS,” commercially available from Hyclone Laboratories Inc. of Omaha, Nebr.), and incubated at 37° C. and 5% CO2. After 24 hours, FCS supplementation was reduced to 10%. […]
Assay Protocol: After 3-5 days incubation with EGF, the astrocytes were washed with 127 mM NaCl, 5 mM KCl, 2 mM MgCl2, […] NaH2PO4, 2 mM CaCl2, 5 mM NaHCO3, 8 mM HEPES, 10 mM Glucose at pH 7.4 (“Assay Buffer”) and loaded with the dye Fluo-4 (commercially available from Molecular Probes Inc. of Eugene, Oreg.) using 0.1 mL of Assay Buffer containing Fluo-4 ([…]). […] The plates containing the astrocytes were then transferred to a Fluorometric Imaging Plate reader (commercially available from Molecular Devices Corporation of Sunnyvale, Calif.) for the assessment of calcium mobilization flux in the presence of glutamate and in the presence or absence of antagonist. […] In each experiment each data point was determined two times.

T1 sequence (P31424 21-1203): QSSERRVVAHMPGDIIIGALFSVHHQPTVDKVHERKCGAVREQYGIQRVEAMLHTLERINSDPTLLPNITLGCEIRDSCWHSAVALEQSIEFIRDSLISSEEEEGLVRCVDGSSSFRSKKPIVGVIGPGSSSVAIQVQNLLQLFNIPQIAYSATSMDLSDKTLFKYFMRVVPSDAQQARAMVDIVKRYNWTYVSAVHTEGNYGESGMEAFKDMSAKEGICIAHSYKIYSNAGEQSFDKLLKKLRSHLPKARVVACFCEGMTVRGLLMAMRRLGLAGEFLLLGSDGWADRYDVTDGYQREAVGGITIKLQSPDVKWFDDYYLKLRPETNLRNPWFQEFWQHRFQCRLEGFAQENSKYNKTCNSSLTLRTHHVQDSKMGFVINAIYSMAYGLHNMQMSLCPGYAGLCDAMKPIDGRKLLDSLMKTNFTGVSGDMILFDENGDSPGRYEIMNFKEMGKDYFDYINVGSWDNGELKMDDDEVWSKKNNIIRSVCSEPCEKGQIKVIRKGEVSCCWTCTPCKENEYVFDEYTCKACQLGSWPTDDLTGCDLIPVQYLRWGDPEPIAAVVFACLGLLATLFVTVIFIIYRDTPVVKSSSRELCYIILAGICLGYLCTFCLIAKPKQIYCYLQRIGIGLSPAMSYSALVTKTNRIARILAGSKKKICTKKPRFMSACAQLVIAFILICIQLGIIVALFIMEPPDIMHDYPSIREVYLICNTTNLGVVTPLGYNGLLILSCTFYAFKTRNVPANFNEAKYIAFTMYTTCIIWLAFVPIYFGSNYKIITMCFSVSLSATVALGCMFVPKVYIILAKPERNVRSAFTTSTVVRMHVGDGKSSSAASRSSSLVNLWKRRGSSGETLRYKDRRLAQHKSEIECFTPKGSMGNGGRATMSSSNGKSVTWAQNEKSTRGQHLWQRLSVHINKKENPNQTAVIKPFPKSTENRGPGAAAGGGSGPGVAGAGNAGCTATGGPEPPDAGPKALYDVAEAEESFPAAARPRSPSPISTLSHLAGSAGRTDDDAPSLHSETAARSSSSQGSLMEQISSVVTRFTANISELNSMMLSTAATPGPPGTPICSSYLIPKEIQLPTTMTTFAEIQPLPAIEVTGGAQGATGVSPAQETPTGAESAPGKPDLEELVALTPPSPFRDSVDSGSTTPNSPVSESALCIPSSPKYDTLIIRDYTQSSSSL

Work on `O=C(C#Cc1ccccc1)N1CCN(c2ncccn2)CC1` [Compound AAA(IIa)] yielded an IC50 of 0.555 ± 0.137 µM.
